In patent publication US9615576B2, “Pesticidal compositions and processes related thereto” (Dow AgroSciences LLC, priority 2011, dated 2017):

How the values were obtained:
[1] = system: Corn Earworm (CEW) (Helicoverpa zea); assay: Bioassays on Corn Earworm (CEW), 128-well diet tray assay; assay type: in vivo; conditions: 168 h, 50 μg/cm^2 test compound on artificial diet, second instar larvae, 25° C., five to seven days, average of eight wells, read-out: CEW Rating (% mortality)
Experimental: (§1) Certain molecules disclosed in this document were tested against BAW and CEW using procedures described in the following examples. In the reporting of the results, the “BAW & CEW Rating Table” was used (See Table Section).
Bioassays on CEW (Helicoverpa zea)
Bioassays on CEW were conducted using a 128-well diet tray assay. one to five second instar CEW larvae were placed in each well (3 mL) of the diet tray that had been previously filled with 1 mL of artificial diet to which 50 μg/cm^2 of the test compound (dissolved in 50 μL of 90:10 acetone-water mixture) had been applied (to each of eight wells) and then allowed to dry. Trays were covered with a clear self-adhesive cover, and held at 25° C., 14:10 light-dark for five to seven days. Percent mortality was recorded for the larvae in each well; activity in the eight wells was then averaged. The results are indicated in the table entitled “Table 3: Assay Results” (See Table Section).

[2] = system: Beet Armyworm (BAW) (Spodoptera exigua); assay: Bioassays on Beet Armyworm (BAW), 128-well diet tray assay; assay type: in vivo; conditions: 168 h, 50 μg/cm^2 test compound on artificial diet, second instar larvae, 25° C., five to seven days, average of eight wells, read-out: BAW Rating (% mortality)
Experimental: as §1
Bioassays on BAW (Spodoptera exigua)
Bioassays on BAW were conducted using a 128-well diet tray assay. one to five second instar BAW larvae were placed in each well (3 mL) of the diet tray that had been previously filled with 1 mL of artificial diet to which 50 μg/cm^2 of the test compound (dissolved in 50 μL of 90:10 acetone-water mixture) had been applied (to each of eight wells) and then allowed to dry. Trays were covered with a clear self-adhesive cover, and held at 25° C., 14:10 light-dark for five to seven days. Percent mortality was recorded for the larvae in each well; activity in the eight wells was then averaged. The results are indicated in the table entitled “Table 3: Assay Results” (See Table Section).

SMILES | mortality at 50 µg/cm2 [1] | mortality at 50 µg/cm2 [2]
O=C(NC1CCN(CC(F)(F)F)CC1)c1ccc(/C=C/C(c2cc(Cl)c(Cl)c(Cl)c2)C(F)(F)F)cc1Br (stereo not shown) [AC105, (E)-2-bromo-4-(4,4,4-trifluoro-3-(3,4,5-trichlorophenyl)but-1-en-1-yl)-N-(1-(2,2,2-trifluoroethyl)piperidin-4-yl)benzamide] | 50 to 100% | 50 to 100%
N#Cc1cc(/C=C/C(c2cc(Cl)c(Cl)c(Cl)c2)C(F)(F)F)ccc1-n1cnc(NC(=O)C2CC2)n1 (stereo not shown) [DC43, (E)-N-(1-(2-cyano-4-(4,4,4-trifluoro-3-(3,4,5-trichlorophenyl)but-1-en-1-yl)phenyl)-1H-1,2,4-triazol-3-yl)cyclopropanecarboxamide] | 50 to 100% | 50 to 100%
N#Cc1cc(/C=C/C(c2cccc(Cl)c2)C(F)(F)F)ccc1-n1cncn1 (stereo not shown) [DC32] | 0% | 0%
CC(=O)Nc1cc(/C=C/C(c2cc(Cl)cc(Cl)c2)C(F)(F)F)ccc1-n1cncn1 (stereo not shown) [DC56] | 0% | 0%
CCNC(=O)NCc1ccc(/C=C/C(c2cc(Cl)c(Cl)c(Cl)c2)C(F)(F)F)cc1C(F)(F)F (stereo not shown) [CC32] | 50 to 100% | 50 to 100%
CN(C)C(=O)NCc1ccc(/C=C/C(c2cc(Cl)c(Cl)c(Cl)c2)C(F)(F)F)cc1Cl (stereo not shown) [CC36, (E)-3-(2-chloro-4-(4,4,4-trifluoro-3-(3,4,5-trichlorophenyl)but-1-en-1-yl)benzyl)-1,1-dimethylurea] | 50 to 100% | 50 to 100%
Cc1cc(/C=C/C(c2cc(Cl)cc(Cl)c2)C(F)(F)F)ccc1C(=O)NCC(=O)N(C)CC(F)(F)F (stereo not shown) [AC51] | 50 to 100% | 50 to 100%
C=CCNC(=S)NC1CCc2cc(/C=C/C(c3cc(Cl)c(Cl)c(Cl)c3)C(F)(F)F)ccc21 (stereo not shown) [BC3] | 50 to 100% | 50 to 100%
FC(F)(F)C(/C=C/c1ccc(-n2cncn2)cc1Cl)c1cc(Cl)cc(Cl)c1 (stereo not shown) [DC67] | 50 to 100% | 50 to 100%
O=C(CC(F)(F)F)NCc1ccc(/C=C/C(c2cc(Cl)c(Cl)c(Cl)c2)C(F)(F)F)cc1Cl (stereo not shown) [CC10] | 50 to 100% | 50 to 100%
Cc1cc(/C=C/C(c2cc(Cl)cc(Cl)c2)C(F)(F)F)ccc1C(=O)NCc1ncccn1 (stereo not shown) [AC18] | 50 to 100% | 50 to 100%
Cc1cc(/C=C/C(c2cc(Cl)cc(Cl)c2)C(F)(F)F)ccc1C(=O)N[C@H]1C[S@@+]([O-])C1 (stereo partly shown) [AC82] | 50 to 100% | 50 to 100%
Cc1cc(C)cc(C(/C=C/c2ccc(-n3cncn3)cc2)C(F)(F)F)c1 (stereo not shown) [DC11] | 0% | 50 to 100%
O=C(NCC(=S)NCC(F)(F)F)c1ccc(/C=C/C(c2cc(Cl)c(Cl)c(Cl)c2)C(F)(F)F)cc1Br (stereo not shown) [AC92, (E)-2-bromo-N-(2-thioxo-2-((2,2,2-trifluoroethyl)amino)ethyl)-4-(4,4,4-trifluoro-3-(3,4,5-trichlorophenyl)but-1-en-1-yl)benzamide] | 50 to 100% | 50 to 100%
Fc1cccc(C(/C=C/c2ccc(-n3cncn3)cc2)C(F)(F)F)c1 (stereo not shown) [DC9] | 0% | 0%
Fc1ccccc1C(/C=C/c1ccc(-n2cncn2)cc1)C(F)(F)F (stereo not shown) [DC10] | 0% | 0%
O=C(NC1CS(=O)(=O)C1)c1ccc(/C=C/C(c2cc(Cl)cc(Cl)c2)C(F)(F)F)cc1F (stereo not shown) [AC83, (E)-4-(3-(3,5-dichlorophenyl)-4,4,4-trifluorobut-1-en-1-yl)-N-(1,1-dioxidothietan-3-yl)-2-fluorobenzamide] | 50 to 100% | 50 to 100%
O=C(CC(F)(F)F)NCc1ccc(/C=C/C(c2ccc(Cl)c(Cl)c2)C(F)(F)F)cc1Cl (stereo not shown) [CC18] | 50 to 100% | 50 to 100%
Cc1cc(/C=C/C(c2cc(Cl)c(Cl)c(Cl)c2)C(F)(F)F)ccc1C(=O)NC(C)(C)c1ccccn1 (stereo not shown) [AC27] | 50 to 100% | 50 to 100%
FC(F)(F)C(/C=C/c1ccc(-n2cncn2)cc1)c1ccc(Cl)cc1Cl (stereo not shown) [DC13] | 50 to 100% | 50 to 100%
Cc1cc(/C=C/C(c2cc(Cl)cc(Cl)c2)C(F)(F)F)ccc1C(=O)NCC1CCOC1 (stereo not shown) [AC19] | 0% | 0%

SMILES | mortality at 50 µg/cm2 [1] | mortality at 50 µg/cm2 [2]
O=C(NC1CCc2cc(/C=C/C(c3cc(Cl)c(Cl)c(Cl)c3)C(F)(F)F)ccc21)C1CC1 (stereo not shown) [BC6] | 50 to 100% | 50 to 100%
Cc1cc(/C=C/C(c2cc(Cl)cc(Cl)c2)C(F)(F)F)ccc1C(=O)NNc1ccccc1F (stereo not shown) [AC17] | 50 to 100% | 50 to 100%
CSc1ncnn1-c1ccc(/C=C/C(c2cc(Cl)cc(Cl)c2)C(F)(F)F)cc1 (stereo not shown) [DC25] | 0% | 0%
CCc1cc(/C=C/C(c2cc(Cl)c(F)c(Cl)c2)C(F)(F)F)ccc1C(=O)NCC(=O)NCC(F)(F)F (stereo not shown) [AC80] | 50 to 100% | 50 to 100%
Cc1cc(/C=C/C(c2cc(Cl)cc(Cl)c2)C(F)(F)F)cc(C#N)c1-n1cncn1 (stereo not shown) [DC44] | 50 to 100% | 50 to 100%
CC(C)(C)OC(=O)NCc1ccc(/C=C/C(c2cc(Cl)c(Cl)c(Cl)c2)C(F)(F)F)cc1Cl (stereo not shown) [CC39] | 0% | 0%
O=C(NC1CSC1)c1ccc(/C=C/C(c2cc(Cl)c(Cl)c(Cl)c2)C(F)(F)F)cc1Br (stereo not shown) [AC32] | 50 to 100% | 50 to 100%
CNC(=S)NC1CCc2cc(/C=C/C(c3cc(Cl)c(Cl)c(Cl)c3)C(F)(F)F)ccc21 (stereo not shown) [BC1, (E)-1-methyl-3-(5-(4,4,4-trifluoro-3-(3,4,5-trichlorophenyl)-but-1-enyl)-2,3-dihydro-1H-inden-1-yl)thiourea] | 50 to 100% | 50 to 100%
O=C(C1CC1)N(Cc1ccccn1)Cc1ccc(/C=C/C(c2cc(Cl)c(Cl)c(Cl)c2)C(F)(F)F)cc1C(F)(F)F (stereo not shown) [CC29, (E)-N-(pyridin-2-ylmethyl)-N-(4-(4,4,4-trifluoro-3-(3,4,5-trichlorophenyl)but-1-enyl)-2-(trifluoromethyl)benzyl)cyclopropanecarboxamide] | 50 to 100% | 50 to 100%
O=Cc1cc(/C=C/C(c2cc(Cl)cc(Cl)c2)C(F)(F)F)ccc1-n1cncn1 (stereo not shown) [DC52, (E)-5-(3-(3,5-dichlorophenyl)-4,4,4-trifluorobut-1-en-1-yl)-2-(1H-1,2,4-triazol-1-yl)benzaldehyde] | 0% | 0%
FC(F)(F)C(/C=C/c1ccc(-n2cncn2)cc1)c1cc(Cl)cc(Cl)c1 (stereo not shown) [DC1, (E)-1-(4-(3-(3,5-dichlorophenyl)-4,4,4-trifluorobut-1-en-1-yl)phenyl)-1H-1,2,4-triazole] | 50 to 100% | 50 to 100%
O=C(CNC(=O)c1ccc(/C=C/C(c2cc(Cl)c(Cl)c(Cl)c2)C(F)(F)F)cc1Br)NCC(F)(F)F (stereo not shown) [AC66] | 50 to 100% | 50 to 100%
N#Cc1cc(/C=C/C(c2cc(Cl)c(Cl)c(Cl)c2)C(F)(F)F)ccc1-n1cncn1 (stereo not shown) [DC31] | 50 to 100% | 50 to 100%
N#Cc1cc(/C=C/C(c2cc(Cl)c(Cl)c(Cl)c2)C(F)(F)F)ccc1-n1cnc([N+](=O)[O-])n1 (stereo not shown) [DC40, (E)-2-(3-nitro-1H-1,2,4-triazol-1-yl)-5-(4,4,4-trifluoro-3-(3,4,5-trichlorophenyl)but-1-en-1-yl)benzonitrile] | 50 to 100% | 50 to 100%
O=C(NCc1ccc(Cl)nc1)c1ccc(/C=C/C(c2cc(Cl)c(Cl)c(Cl)c2)C(F)(F)F)cc1Br (stereo not shown) [AC31] | 50 to 100% | 50 to 100%
O=C(CNC(=S)c1ccc(/C=C/C(c2cc(Cl)c(Cl)c(Cl)c2)C(F)(F)F)cc1Br)NCC(F)(F)F (stereo not shown) [AC91, (E)-2-(2-bromo-4-(4,4,4-trifluoro-3-(3,4,5-trichlorophenyl)but-1-en-1-yl)phenylthioamido)-N-(2,2,2-trifluoroethyl)acetamide] | 50 to 100% | 50 to 100%
O=C(CC(F)(F)F)NNc1ccc(/C=C/C(c2cc(Cl)c(Cl)c(Cl)c2)C(F)(F)F)cc1 (stereo not shown) [CC51] | 50 to 100% | 50 to 100%
Fc1cc(F)cc(C(/C=C/c2ccc(-n3cncn3)cc2)C(F)(F)F)c1 (stereo not shown) [DC8] | 0% | 50 to 100%
CC(=O)Nc1ncn(-c2ccc(/C=C/C(c3cc(Cl)cc(Cl)c3)C(F)(F)F)cc2C#N)n1 (stereo not shown) [DC39] | 50 to 100% | 50 to 100%
Cc1cc(/C=C/C(c2cc(Cl)c(F)c(Cl)c2)C(F)(F)F)ccc1C(=O)NCc1ccc(Cl)cn1 (stereo not shown) [AC53] | 50 to 100% | 50 to 100%
